Test results published in US20110086759A1, “CHEMICAL COMPOUNDS” (SYNGENTA CROP PROTECTION, INC., priority 2007, published 2011).

How the values were obtained:
Type in all cases: in vivo
Setaria faberi (SETFA) [1] = experiment: Pre-emergence biological efficacy, glasshouse pot test; conditions: 312 h, pre-emergence, 1,000 g/ha, evaluated after 13 days (100=total damage; 0=no damage), read-out: Percentage damage SETFA
Summary of the method: (§1)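 Scores on a 0–100 damage scale were taken 13 days after spraying. Application rate 1000 or 250 g/ha, one day after sowing, in acetone/water-based aqueous spray containing 0.5% Tween 20.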

[2] = system: Alopecurus myosuroides (ALOMY); experiment: as above; conditions: 312 h, pre-emergence, 1,000 g/ha, evaluated after 13 days (100=total damage; 0=no damage), read-out: Percentage damage ALOMY
Summary of the method: as §1

[3] = system: Ipomea hederaceae (IPOHE); experiment: as above; conditions: Ipomoea hederacea, 312 h; pre-emergence, 1,000 g/ha, evaluated after 13 days (100=total damage; 0=no damage); read-out: Percentage damage IPOHE
Summary of the method: as §1

Solanum nigrum (SOLNI) [4] = experiment: as above; conditions: 312 h, pre-emergence, 1,000 g/ha, evaluated after 13 days (100=total damage; 0=no damage), read-out: Percentage damage SOLNI
Summary of the method: as §1

[5] = system: Amaranthus retoflexus (AMARE); experiment: as above; conditions: Amaranthus retroflexus, 312 h; pre-emergence, 1,000 g/ha, evaluated after 13 days (100=total damage; 0=no damage); read-out: Percentage damage AMARE
Summary of the method: as §1

[6] = system: Echinochloa crus-galli (ECHCG); experiment: as above; conditions: 312 h, pre-emergence, 1,000 g/ha, evaluated after 13 days (100=total damage; 0=no damage), read-out: Percentage damage ECHCG
Summary of the method: as §1

Setaria faberi (SETFA) [7] = experiment: Post-emergence biological efficacy, glasshouse pot test; conditions: 312 h, post-emergence, 1,000 g/ha, evaluated after 13 days (100=total damage; 0=no damage), read-out: Percentage damage caused to weed species, SETFA
Summary of the method: (§2)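 Scored 13 days after spraying on a 0 (no damage) to 100 (total damage) scale. Treatment was a post-emergence spray at 1000 or 250 g/ha, from acetone/water 50:50 plus 0.5% Tween 20, onto 8-day-old plants in soil pots. Growth at 24/16° C, 14 h photoperiod, 65% humidity, watered twice daily.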

[8] = system: Alopecurus myosuroides (ALOMY); experiment: as above; conditions: 312 h, post-emergence, 1,000 g/ha, evaluated after 13 days (100=total damage; 0=no damage), read-out: Percentage damage caused to weed species, ALOMY
Summary of the method: as §2

[9] = system: Ipomea hederaceae (IPOHE); experiment: as above; conditions: Ipomoea hederacea, 312 h; post-emergence, 1,000 g/ha, evaluated after 13 days (100=total damage; 0=no damage); read-out: Percentage damage caused to weed species, IPOHE
Summary of the method: as §2

Solanum nigrum (SOLNI) [10] = experiment: as above; conditions: 312 h, post-emergence, 1,000 g/ha, evaluated after 13 days (100=total damage; 0=no damage), read-out: Percentage damage caused to weed species, SOLNI
Summary of the method: as §2

[11] = system: Amaranthus retoflexus (AMARE); experiment: as above; conditions: Amaranthus retroflexus, 312 h; post-emergence, 1,000 g/ha, evaluated after 13 days (100=total damage; 0=no damage); read-out: Percentage damage caused to weed species, AMARE
Summary of the method: as §2

[12] = system: Echinochloa crus-galli (ECHCG); experiment: as above; conditions: 312 h, post-emergence, 1,000 g/ha, evaluated after 13 days (100=total damage; 0=no damage), read-out: Percentage damage caused to weed species, ECHCG
Summary of the method: as §2

Row | Structure (SMILES) | pest or weed control at 1000 g/ha (Setaria faberi (SETFA) [1]) [%] | pest or weed control at 1000 g/ha [2] [%] | pest or weed control at 1000 g/ha [3] [%] | pest or weed control at 1000 g/ha (Solanum nigrum (SOLNI) [4]) [%] | pest or weed control at 1000 g/ha [5] [%] | pest or weed control at 1000 g/ha [6] [%] | pest or weed control at 1000 g/ha (Setaria faberi (SETFA) [7]) [%] | pest or weed control at 1000 g/ha [8] [%] | pest or weed control at 1000 g/ha [9] [%] | pest or weed control at 1000 g/ha (Solanum nigrum (SOLNI) [10]) [%] | pest or weed control at 1000 g/ha [11] [%] | pest or weed control at 1000 g/ha [12] [%]
1 | COC(=O)c1nc(C2CC2)nc(NCc2cc(F)ccc2F)c1Cl [Compound 4-98, 5-Chloro-2-cyclopropyl-4-(2,5-difluorophenyl-methyl-amino)-6-methoxycarbonyl-pyrimidine] | 30 | 30 | 60 | 60 | 50 | 20 | 100 | 40 | 100 | 100 | 100 | 80
2 | COC(=O)c1nc(C2CC2)nc(NCc2c(F)cccc2F)c1Cl [Compound 4-99, 5-Chloro-2-cyclopropyl-4-(2,6-difluorophenylmeth-ylamino)-6-methoxycarbonyl-pyrimidine] | 50 | 30 | 60 | 60 | 60 | 50 | 100 | 50 | 100 | 100 | 100 | 100
3 | COC(=O)c1nc(C2CC2)nc(NCc2cc(F)cc(F)c2)c1Cl [Compound 4-100, 5-Chloro-2-cyclopropyl-4-(3,5-difluorophenylmeth-ylamino)-6-methoxy-carbonylpyrimidine] | 20 | 20 | 50 | 60 | 70 | 40 | 100 | 30 | 100 | 100 | 100 | 70
4 | COC(=O)c1nc(C2CC2)nc(NCc2ccc(Cl)cc2F)c1Cl [Compound 4-101, 5-Chloro-4-(4-chloro-2-fluoro-phenylmethyl-amino)-2-cyclopropyl-6-methoxycarbonyl-pyrimidine] | 10 | 10 | 70 | 30 | 70 | 30 | 90 | 30 | 100 | 100 | 100 | 50
5 | COC(=O)c1nc(C2CC2)nc(NCc2ccc(Cl)cc2Cl)c1Cl [Compound 4-103, 5-Chloro-2-cyclopropyl-4-(2,4-dichlorophenyl-methylamino)-6-methoxycarbonyl-pyrimidine] | 0 | 10 | 30 | 10 | 40 | 0 | 70 | 20 | 90 | 80 | 100 | 60
6 | COC(=O)c1nc(C2CC2)nc(NCc2c(Cl)cccc2Cl)c1Cl [Compound 4-104, 5-Chloro-2-cyclopropyl-4-(2,6-dichlorophenyl-methylamino)-6-methoxycarbonyl-pyrimidine] | 0 | 10 | 20 | 30 | 40 | 20 | 90 | 20 | 100 | 90 | 100 | 90
7 | COC(=O)c1nc(C2CC2)nc(NCc2cc(C(F)(F)F)cc(C(F)(F)F)c2)c1Cl [Compound 4-108, 4-(3,5-Bis-trifluoro-methylphenyl-methylamino)-5-chloro-2-cyclo-propyl-6-methoxy-carbonylpyrimidine] | 10 | 0 | 40 | 0 | 40 | 0 | 20 | 10 | 70 | 90 | 50 | 10
8 | COC(=O)c1nc(C2CC2)nc(NCc2cccc(OC)c2OC)c1Cl [Compound 4-109, 5-Chloro-2-cyclopropyl-4-(2,3-dimethoxyphenyl-methylamino)-6-methoxycarbonyl-pyrimidine] | 30 | 20 | 80 | 50 | 70 | 30 | 80 | 20 | 100 | 90 | 100 | 60
9 | COC(=O)c1nc(C2CC2)nc(NCc2ccc(OC)cc2OC)c1Cl [Compound 4-110, 5-Chloro-2-cyclopropyl-4-(2,4-dimethoxyphenyl-methylamino)-6-methoxycarbonyl-pyrimidine] | 40 | 40 | 100 | 90 | 100 | 80 | 80 | 70 | 100 | 80 | 100 | 80
10 | COC(=O)c1nc(C2CC2)nc(NCc2c(OC)cccc2OC)c1Cl [Compound 4-111, 5-Chloro-2-cyclopropyl-4-(2,6-dimethoxyphenyl-methylamino)-6-methoxycarbonyl-pyrimidine] | 40 | 20 | 80 | 60 | 90 | 50 | 80 | 30 | 100 | 100 | 100 | 60
11 | COC(=O)c1nc(C2CC2)nc(NCc2ccc(OC)c(OC)c2)c1Cl [Compound 4-112, 5-Chloro-2-cyclopropyl-4-(3,4-dimethoxyphenyl-methylamino)-6-methoxycarbonyl-pyrimidine] | 80 | 50 | 90 | 90 | 70 | 40 | 90 | 40 | 100 | 100 | 100 | 90
